# Read-outs that look alike come from different tables or passages of the source.
# Legend:
# Experiment in all cases: Test B pre-/postemergence plant response
# Format in all cases: in vivo
# [1] = tested on: catchweed bedstraw (Galium aparine); details: Preemergence
# Summary of the method: (§1)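 Seeds were sown and sprayed preemergence, while plants at 2 to 18 cm (1- to 4-leaf stage) got postemergence sprays. Compounds were formulated in a non-phytotoxic solvent mixture with surfactant. After 13 to 15 days in a greenhouse, injury was rated visually against untreated controls, 0 (no effect) to 100 (complete control).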
# [2] = tested on: large crabgrass (Digitaria sanguinalis); details: for pest or weed control at 31 g/ha: 31 g ai/ha; for pest or weed control at 62 g/ha: 62 g ai/ha, 100 complete control
# Summary of the method: as §1
# [3] = tested on: goosegrass (Eleusine indica); details: for pest or weed control at 31 g/ha / pest or weed control at 62 g/ha: Eleusine indica, read-out: Plant response rating, Goosegrass; for pest or weed control at 31 g/ha: 31 g ai/ha; for pest or weed control at 62 g/ha: 62 g ai/ha, 100 complete control
# Summary of the method: as §1
# [4] = tested on: common (oilseed) sunflower (Helianthus annuus); details: Preemergence
# Summary of the method: as §1
# soybean (Glycine max) = details: for plant injury at 31 g/ha / plant injury at 62 g/ha: Glycine max, read-out: Plant response rating, Soybean; for plant injury at 31 g/ha: 31 g ai/ha; for plant injury at 62 g/ha: 62 g ai/ha, 100 complete control
# Summary of the method: as §1
# [5] = tested on: wheat (Triticum aestivum); details: for plant injury at 31 g/ha / plant injury at 62 g/ha: Triticum aestivum, read-out: Plant response rating, Wheat; for plant injury at 31 g/ha: 31 g ai/ha; for plant injury at 62 g/ha: 62 g ai/ha, 100 complete control
# Summary of the method: as §1
# [6] = tested on: cocklebur (Xanthium strumarium); details: for pest or weed control at 31 g/ha: 31 g ai/ha; for pest or weed control at 62 g/ha: 62 g ai/ha, 100 complete control
# Summary of the method: as §1
# [7] = tested on: Russian thistle (Salsola iberica); details: Preemergence
# Summary of the method: as §1
# [8] = tested on: pigweed (Amaranthus retroflexus); details: for pest or weed control at 31 g/ha / pest or weed control at 62 g/ha: Amaranthus retroflexus, read-out: Plant response rating, Pigweed; for pest or weed control at 31 g/ha: 31 g ai/ha; for pest or weed control at 62 g/ha: 62 g ai/ha, 100 complete control
# Summary of the method: as §1
# [9] = tested on: woolly cupgrass (Eriochloa villosa); details: for pest or weed control at 31 g/ha: 31 g ai/ha; for pest or weed control at 62 g/ha: 62 g ai/ha, 100 complete control
# Summary of the method: as §1
# [10] = tested on: green foxtail (Setaria viridis); details: for pest or weed control at 31 g/ha: 31 g ai/ha; for pest or weed control at 62 g/ha: 62 g ai/ha, 100 complete control
# Summary of the method: as §1
# [11] = tested on: downy bromegrass (Bromus tectorum); details: for pest or weed control at 31 g/ha: 31 g ai/ha; for pest or weed control at 62 g/ha: 62 g ai/ha, 100 complete control
# Summary of the method: as §1
# [12] = tested on: velvetleaf (Abutilon theophrasti); details: for pest or weed control at 31 g/ha / pest or weed control at 62 g/ha: Abutilon theophrasti, read-out: Plant response rating, Velvetleaf; for pest or weed control at 31 g/ha: 31 g ai/ha; for pest or weed control at 62 g/ha: 62 g ai/ha, 100 complete control
# Summary of the method: as §1
# [13] = 8 g ai/ha, scale 0 to 100 (0 no effect, 100 complete control)
# [14] = 8 g ai/ha, postemergence, 0-100 scale
# [15] = Preemergence, 8 g ai/ha, scale 0 to 100 (0 no effect, 100 complete control)
# [16] = Preemergence, 16 g ai/ha, scale 0 to 100
# [17] = 16 g ai/ha, postemergence, 0-100 scale
# [18] = post-emergence, Postemergence, scale 0 to 100
# [19] = post-emergence, Postemergence, scale 0 to 100, 0 no effect
# [20] = pre-emergence, Preemergence, scale 0 to 100 (0 no effect, 100 complete control)
# [21] = pre-emergence, Preemergence, 0 to 100 scale, 0 no effect
structure (smiles),measurement,setting,value
"Cc1nn(C)c(=O)c(-c2nc(-c3ccc(Cl)cc3)sc2C)c1O [Compound 79, 4-[2-(4-chlorophenyl)-5-methyl-4-thiazolyl]-5-hydroxy-2,6-dimethyl-3(2H)-pyridazinone]",pest or weed control at 31 g/ha,"[1]; Galium aparine, pre-emergence, 31 g ai/ha, scale 0 to 100 (0 no effect, 100 complete control), read-out: Plant response rating, Galium",0%
same,pest or weed control at 62 g/ha,"[1]; Galium aparine, pre-emergence, 62 g ai/ha, 0 to 100 scale, 0 no effect, 100 complete control, read-out: Plant response rating, Galium",0%
same,Galium plant response rating,[1]; [13],0
same,Galium plant response rating,"[1]; 16 g ai/ha, scale 0 to 100",0
same,"Crabgrass, Large plant response rating",[2]; [14],75
same,pest or weed control at 16 g/ha,"[2]; Digitaria sanguinalis, post-emergence, Postemergence, 16 g ai/ha, scale 0 to 100, read-out: Plant response rating, Crabgrass, Large",80%
same,pest or weed control at 31 g/ha,"[2]; Digitaria sanguinalis, post-emergence, Postemergence, scale 0 to 100, read-out: Plant response rating, Crabgrass, Large",85%
same,pest or weed control at 62 g/ha,"[2]; Digitaria sanguinalis, post-emergence, Postemergence, scale 0 to 100, 0 no effect, read-out: Plant response rating, Crabgrass, Large",98%
same,pest or weed control at 31 g/ha,"[2]; Digitaria sanguinalis, pre-emergence, Preemergence, scale 0 to 100 (0 no effect, 100 complete control), read-out: Plant response rating, Crabgrass, Large",100%
same,pest or weed control at 62 g/ha,"[2]; Digitaria sanguinalis, pre-emergence, Preemergence, 0 to 100 scale, 0 no effect, read-out: Plant response rating, Crabgrass, Large",100%
same,"Crabgrass, Large plant response rating",[2]; [15],20
same,"Crabgrass, Large plant response rating",[2]; [16],100
same,Goosegrass plant response rating,[3]; [14],60
same,Goosegrass plant response rating,[3]; [17],80
same,pest or weed control at 31 g/ha,[3]; [18],85%
same,pest or weed control at 62 g/ha,[3]; [19],90%
same,pest or weed control at 31 g/ha,[3]; [20],100%
same,pest or weed control at 62 g/ha,[3]; [21],100%
same,Goosegrass plant response rating,[3]; [15],98
same,Goosegrass plant response rating,[3]; [16],100
same,pest or weed control at 31 g/ha,"[4]; Helianthus annuus, pre-emergence, 31 g ai/ha, scale 0 to 100 (0 no effect, 100 complete control), read-out: Plant response rating, Sunflower",0%
same,pest or weed control at 62 g/ha,"[4]; Helianthus annuus, pre-emergence, 62 g ai/ha, 0 to 100 scale, 0 no effect, 100 complete control, read-out: Plant response rating, Sunflower",0%
same,Sunflower plant response rating,[4]; [13],0
same,Sunflower plant response rating,"[4]; 16 g ai/ha, scale 0 to 100",0
same,Soybean plant response rating,soybean (Glycine max); [14],0
same,Soybean plant response rating,soybean (Glycine max); [17],0
same,plant injury at 31 g/ha,soybean (Glycine max); [18],15%
same,plant injury at 62 g/ha,soybean (Glycine max); [19],15%
same,plant injury at 31 g/ha,soybean (Glycine max); [20],98%
same,plant injury at 62 g/ha,soybean (Glycine max); [21],100%
same,Soybean plant response rating,soybean (Glycine max); [15],0
same,Soybean plant response rating,soybean (Glycine max); [16],0
same,Wheat plant response rating,[5]; [14],0
same,Wheat plant response rating,[5]; [17],20
same,Wheat plant response rating,[5]; [15],0
same,Wheat plant response rating,[5]; [16],0
same,plant injury at 31 g/ha,[5]; [18],60%
same,plant injury at 62 g/ha,[5]; [19],85%
same,plant injury at 31 g/ha,[5]; [20],0%
same,plant injury at 62 g/ha,[5]; [21],0%
same,Cocklebur plant response rating,[6]; [14],0
same,Cocklebur plant response rating,[6]; [15],0
same,Cocklebur plant response rating,[6]; [16],0
same,pest or weed control at 16 g/ha,"[6]; Xanthium strumarium, post-emergence, Postemergence, 16 g ai/ha, scale 0 to 100, read-out: Plant response rating, Cocklebur",0%
same,pest or weed control at 31 g/ha,"[6]; Xanthium strumarium, post-emergence, Postemergence, scale 0 to 100, read-out: Plant response rating, Cocklebur",0%
same,pest or weed control at 62 g/ha,"[6]; Xanthium strumarium, post-emergence, Postemergence, scale 0 to 100, 0 no effect, read-out: Plant response rating, Cocklebur",0%
same,pest or weed control at 31 g/ha,"[6]; Xanthium strumarium, pre-emergence, Preemergence, scale 0 to 100 (0 no effect, 100 complete control), read-out: Plant response rating, Cocklebur",0%
same,pest or weed control at 62 g/ha,"[6]; Xanthium strumarium, pre-emergence, Preemergence, 0 to 100 scale, 0 no effect, read-out: Plant response rating, Cocklebur",0%
same,Russian Thistle plant response rating,[7]; [13],0
same,"Plant response rating, Russian Thistle","[7]; 31 g ai/ha, scale 0 to 100 (0 no effect, 100 complete control)",0
same,"Plant response rating, Russian Thistle","[7]; 62 g ai/ha, 0 to 100 scale, 0 no effect, 100 complete control",0
same,Russian Thistle plant response rating,"[7]; 16 g ai/ha, scale 0 to 100",0
same,Pigweed plant response rating,[8]; [14],0
same,Pigweed plant response rating,[8]; [17],0
same,pest or weed control at 31 g/ha,[8]; [18],0%
same,pest or weed control at 62 g/ha,[8]; [19],0%
same,pest or weed control at 31 g/ha,[8]; [20],0%
same,pest or weed control at 62 g/ha,[8]; [21],0%
same,Pigweed plant response rating,[8]; [15],0
same,Pigweed plant response rating,[8]; [16],0
same,"Cupgrass, Woolly plant response rating",[9]; [14],60
same,pest or weed control at 16 g/ha,"[9]; Eriochloa villosa, post-emergence, Postemergence, 16 g ai/ha, scale 0 to 100, read-out: Plant response rating, Cupgrass, Woolly",65%
same,pest or weed control at 31 g/ha,"[9]; Eriochloa villosa, post-emergence, Postemergence, scale 0 to 100, read-out: Plant response rating, Cupgrass, Woolly",75%
same,pest or weed control at 62 g/ha,"[9]; Eriochloa villosa, post-emergence, Postemergence, scale 0 to 100, 0 no effect, read-out: Plant response rating, Cupgrass, Woolly",80%
same,pest or weed control at 31 g/ha,"[9]; Eriochloa villosa, pre-emergence, Preemergence, scale 0 to 100 (0 no effect, 100 complete control), read-out: Plant response rating, Cupgrass, Woolly",100%
same,pest or weed control at 62 g/ha,"[9]; Eriochloa villosa, pre-emergence, Preemergence, 0 to 100 scale, 0 no effect, read-out: Plant response rating, Cupgrass, Woolly",100%
same,"Cupgrass, Woolly plant response rating",[9]; [15],20
same,"Cupgrass, Woolly plant response rating",[9]; [16],65
same,"Foxtail, Green plant response rating",[10]; [14],75
same,"Foxtail, Green plant response rating",[10]; [15],30
same,"Foxtail, Green plant response rating",[10]; [16],60
same,pest or weed control at 16 g/ha,"[10]; Setaria viridis, post-emergence, Postemergence, 16 g ai/ha, scale 0 to 100, read-out: Plant response rating, Foxtail, Green",85%
same,pest or weed control at 31 g/ha,"[10]; Setaria viridis, post-emergence, Postemergence, scale 0 to 100, read-out: Plant response rating, Foxtail, Green",98%
same,pest or weed control at 62 g/ha,"[10]; Setaria viridis, post-emergence, Postemergence, scale 0 to 100, 0 no effect, read-out: Plant response rating, Foxtail, Green",98%
same,pest or weed control at 31 g/ha,"[10]; Setaria viridis, pre-emergence, Preemergence, scale 0 to 100 (0 no effect, 100 complete control), read-out: Plant response rating, Foxtail, Green",98%
same,pest or weed control at 62 g/ha,"[10]; Setaria viridis, pre-emergence, Preemergence, 0 to 100 scale, 0 no effect, read-out: Plant response rating, Foxtail, Green",100%
same,"Bromegrass, Downy plant response rating",[11]; [14],0
same,pest or weed control at 16 g/ha,"[11]; Bromus tectorum, post-emergence, Postemergence, 16 g ai/ha, scale 0 to 100, read-out: Plant response rating, Bromegrass, Downy",0%
same,pest or weed control at 31 g/ha,"[11]; Bromus tectorum, post-emergence, Postemergence, scale 0 to 100, read-out: Plant response rating, Bromegrass, Downy",30%
same,pest or weed control at 62 g/ha,"[11]; Bromus tectorum, post-emergence, Postemergence, scale 0 to 100, 0 no effect, read-out: Plant response rating, Bromegrass, Downy",50%
same,pest or weed control at 31 g/ha,"[11]; Bromus tectorum, pre-emergence, Preemergence, scale 0 to 100 (0 no effect, 100 complete control), read-out: Plant response rating, Bromegrass, Downy",55%
same,pest or weed control at 62 g/ha,"[11]; Bromus tectorum, pre-emergence, Preemergence, 0 to 100 scale, 0 no effect, read-out: Plant response rating, Bromegrass, Downy",80%
same,"Bromegrass, Downy plant response rating",[11]; [15],0
same,"Bromegrass, Downy plant response rating",[11]; [16],0
same,Velvetleaf plant response rating,[12]; [14],0
same,Velvetleaf plant response rating,[12]; [17],0
same,pest or weed control at 31 g/ha,[12]; [18],0%
same,pest or weed control at 62 g/ha,[12]; [19],0%
same,pest or weed control at 31 g/ha,[12]; [20],0%
same,pest or weed control at 62 g/ha,[12]; [21],0%
same,Velvetleaf plant response rating,[12]; [15],0
same,Velvetleaf plant response rating,[12]; [16],0
